These results are taken from patent US9661855B2, “Cyclic aza-sila compounds as insect repellants” (COUNCIL OF SCIENTIFIC & INDUSTRIAL RESEARCH, priority 2012, dated 2017).

In data set [1] the test system is Ae. aegypti females mosquitoes. Description: Mosquito repellence test, protection period (time until the first bite), treated muslin screen over human volunteer's hand. The settings on record: 27±1° C.; for Protection period in hrs @ 0.25 mg/cm^2: 0.25 mg/cm^2 on muslin cloth screen; for Protection period in hrs @ 0.50 mg/cm^2: 0.50 mg/cm^2 on muslin cloth screen. Format: in vivo. The procedure: Mosquito repellence activity was assessed on the basis of protection period (hr) offered by various analogues of DEET against Mosquito bites. The protection period was measured on the basis of the concept” time until the first bite” pioneered by Granette (Comparison of mosquito repellence test under laboratory and field conditions. Granett, P. Proc Ann Meet NJ Mosq Assoc, 1938, vol. 25, 51). Repellence tests were carried out against 3-5 days old, blood starved but sucrose fed (0.5M solution), Ae. aegypti females mosquitoes, drawn from well-established laboratory colony maintained at 27±1° C. Temperature and 70±5% Relative humidity. The light intensity was regulated at 300-500 lux for testing against laboratory, colonized Ae. aegypti, a day biting mosquito. Human volunteer's hand covered with polythene disposable gloves was introduced in the cage containing about 200 hungry mosquitoes. Mosquitoes were allowed to bite on the back of the hand through muslin screen stuck over a small window (2 cm×2 cm) cut out in the polythene bag. Various analogues of DEET were loaded on the muslin cloth screen instead of direct skin application so as to avoid the potential risk involved in the evaluation of natural products of unknown mammalian toxicity. All the test solutions were made in Analar grade Acetone The muslin cloth screen was first treated with the analogue taking two doses @0.25 mg/cm2 and 0.5 mg/cm2 and the solvent was evaporated before use. Control muslin screen was treated with solvent alone. After introduction of the hand covered with the polythene glove with the treated muslin screen into the mosquito cage, number of mosquito bites received in subsequent 5 minutes was counted. In the event of no bites in the initial 5 minutes exposure, the test hand was exposed repeatedly after every consecutive ½ hr for 5 minutes test till the time a confirmed bite was received. Number of hours before the receipt of a confirmed bite (Techniques for the evaluation of insect repellents. A critical review (Schreck, C. E, Ann Rev Entomol, 1977, vol 22, 101) represented the protection period offered by the test compound. In control rate of mosquito bite was 10-12 bites/min. All the tests were carried out at 27±1° C. temperature between 9.00-17.00 hrs.

Data set [2] relates to insect bites. The settings on record: cited from earlier work.
Data set [3] relates to Aedesaegypti (L.). The settings on record: against Aedesaegypti (L.); topical, human volunteers; cited from earlier work.
The subject of data set [4] is Anopheles stephensi Liston. Conditions: against Anopheles stephensi Liston; topical, human volunteers; cited from earlier work.

Each structure is given as a SMILES string. Read-outs that look alike come from different tables or passages of the source.

`Cc1cccc(C(=O)N2CC[Si](C)(C)CC2)c1` registered a melting point of 65 to 68 °C.

Consider `C[Si]1(C)CCN(C(=O)c2ccccc2)CC1`, for which the melting point was in the range of 65 to 67 °C. Same read-out and setting: to `C[Si]1(C)CCN(C(=O)c2cc(Cl)ccc2Cl)CC1` belongs 79 to 81 °C.

`C[Si]1(C)CCN(C(=O)c2ccccn2)CC1` displayed a melting point of 101 to 103 °C. For `C[Si]1(C)CCN(C(=O)c2cnccn2)CC1`, in data set [1], the “Protection period in hrs @ 0.25 mg/cm^2” value stood at 2.14 ± 0.76 h and the “Protection period in hrs @ 0.50 mg/cm^2” value came to 4.22 ± 0.69 h. In the same order, the values of `CCCCCCCCCCC(=O)N1CC[Si](C)(C)CC1` are 2.14 ± 0.065 h and 5.05 ± 0.207 h.

As for `Cc1ccccc1C(=O)N1CC[Si](C)(C)CC1`, in data set [1], the “Protection period in hrs @ 0.25 mg/cm^2” value was found to be 4.09 ± 0.053 h and the “Protection period in hrs @ 0.50 mg/cm^2” value was determined as 5.41 ± 0.135 h. Taken in the same sequence, the figures for `Cc1ccc(C(=O)N2CC[Si](C)(C)CC2)cc1` were 3.08 ± 0.056 h and 4.16 ± 0.067 h. For the molecule `CCN(CC)C(=O)c1cccc(C)c1` [DEET, N,N-Diethyl-meta-toluamide], the hours of protection entry in data set [2] (100% DEET) is “up to 12 hours”; in data set [2] (lower concentrations of 20%-40% DEET) it was 3 to 8 h.

On to `CCN(CC)C(=O)c1cccc(C(F)(F)F)c1` [N,N,diethyl[3-(trifluoromethyl)]benzamide], for which the “biting-deterrent activities compared with DEET” value in data set [3] and in data set [4] was “superior to DEET” each time. For the molecule `CCN(CC)C(=O)Cc1cccc(Br)c1` [N,N-diethyl(3-bromophenyl) acetamide], the “biting-deterrent activities compared with DEET” value in data set [3] and in data set [4] was “superior to DEET” in each case. Regarding `CCN(CC)C(=O)Cc1cccc(C(F)(F)F)c1` [N,N-diethyl[(alpha,alpha,alpha-trifluoro-m-tolyl)]acetamide], the “biting-deterrent activities compared with DEET” value in data set [3] and in data set [4] was “superior to DEET” throughout.

For the molecule `Cc1cccc(C(=O)N2CC[Si](C)(C)CC2)c1` [drawing 33], in data set [1], the “Protection period in hrs @ 0.25 mg/cm^2” value was determined as 1.47 ± 0.13 h and the “Protection period in hrs @ 0.50 mg/cm^2” value was 2.15 ± 0.072 h.

Broadly, the melting point is the temperature, or range, at which the solid turns liquid.
